Here are results for twelve molecules from patent US20130281465A1, “PYRAZOLE DERIVATIVE” (TAISHO PHARMACEUTICAL CO., LTD., priority 2010, published 2013).

The structures appear in SMILES notation.

The target of assay [1] is T1, human orexin type 1 receptor (hOX1R) (Homo sapiens, UniProt O43613).
T1 construct: expressed in transfected cells; host or cells: Chinese hamster ovary (CHO) cells
T1 sequence (O43613 1-425): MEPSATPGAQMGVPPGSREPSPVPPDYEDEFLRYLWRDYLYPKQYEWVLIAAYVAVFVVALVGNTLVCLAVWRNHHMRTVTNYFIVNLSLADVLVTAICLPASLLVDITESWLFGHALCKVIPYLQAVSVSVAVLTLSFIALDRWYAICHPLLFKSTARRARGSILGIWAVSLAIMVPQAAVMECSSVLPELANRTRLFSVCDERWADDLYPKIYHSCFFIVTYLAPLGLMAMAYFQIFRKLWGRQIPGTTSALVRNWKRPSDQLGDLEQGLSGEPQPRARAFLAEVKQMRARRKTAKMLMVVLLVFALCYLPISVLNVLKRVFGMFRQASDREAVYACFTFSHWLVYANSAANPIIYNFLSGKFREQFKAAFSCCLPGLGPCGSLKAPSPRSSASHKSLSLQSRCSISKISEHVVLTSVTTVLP
The assay is described as follows: Orexin receptor antagonistic activity, intracellular Ca2+ fluorescence (FDSS) in CHO cells expressing hOX1R. The note with it: CHO cells forced to express hOX1R; orexin-A analogue peptide ligand 300 pM; Fluo-4 maximum fluorescence; read-out: IC50 value OX1R. Format: cell-based. How it is done: (§1) The antagonistic activity of each test compound against human orexin type 1 receptor (hOX1R) and orexin type 2 receptor (hOX2R) was performed as described in the literature with a modification (Toshikatsu Okumura et al., Biochemical and Biophysical Research Communications 280, 976-981, 2001). Chinese hamster ovary (CHO) cells forced to express hOX1R or hOX2R were seeded at 20,000 cells/well on a 96 well Black clear bottom plates (Nunc) and cultured for 16 hours under conditions of 37° C. and 5% CO2 using a Ham's F-12 medium containing 0.1 mM MEM non-essential amino acids, 0.5 mg/ml G418, and 10% fetal bovine serum (all from Invitrogen Corp.). After removal of the medium, 100 μL of the assay buffer (25 mM HEPES (Dojindo Laboratories), Hanks' balanced salt solution (Invitrogen Corp.), 0.1% bovine serum albumin, 2.5 mM probenecid, 200 μg/ml Amaranth (all from Sigma-Aldrich Corp.), pH 7.4) containing 0.5 μM Fluo-4AM ester (Dojindo Laboratories) was added thereto, and the cells were incubated for 60 minutes under conditions of 37° C. and 5% CO2. After removal of the buffer solution for assay containing Fluo-4AM ester, the test compound was dissolved at a concentration of 10 mM in dimethyl sulfoxide and diluted with the assay buffer, and 150 μL of the diluted solution was then added to each wells, which were then incubated for 30 minutes.
(§2) A peptide (Pyr-[…]11e-Leu-Thr-Leu-NH2; Peptide Institute, Inc.) substituted 2 amino acids of human orexin-A was diluted with the assay buffer to 300 pM (final concentration for hOX1R) or 3 nM (final concentration for hOX2R). 50 μL of this ligand solution was added thereto to start reaction. During the reaction, the fluorescence value of each well was measured every one second for 3 minutes using Functional Drug Screening System (FDSS; manufactured by Hamamatsu Photonics K.K.), and antagonistic activity was determined with the maximum fluorescence value as an index for intracellular Ca^2+ concentration. The antagonistic activity of the test compound was calculated with the fluorescence value of a well supplemented with only a dilution buffer solution as 100% and the fluorescence value of a well supplemented with a buffer solution containing neither the ligand nor the compound as 0%, and determined in terms of 50% inhibitory concentration (IC50 value) from fluorescence values derived from the test compound added at varying concentrations.

The target of assay [2] is T2, orexin type 2 receptor (hOX2R) (Homo sapiens, UniProt O43614).
T2 construct: expressed in transfected cells; host or cells: Chinese hamster ovary (CHO) cells
T2 sequence (O43614 1-444): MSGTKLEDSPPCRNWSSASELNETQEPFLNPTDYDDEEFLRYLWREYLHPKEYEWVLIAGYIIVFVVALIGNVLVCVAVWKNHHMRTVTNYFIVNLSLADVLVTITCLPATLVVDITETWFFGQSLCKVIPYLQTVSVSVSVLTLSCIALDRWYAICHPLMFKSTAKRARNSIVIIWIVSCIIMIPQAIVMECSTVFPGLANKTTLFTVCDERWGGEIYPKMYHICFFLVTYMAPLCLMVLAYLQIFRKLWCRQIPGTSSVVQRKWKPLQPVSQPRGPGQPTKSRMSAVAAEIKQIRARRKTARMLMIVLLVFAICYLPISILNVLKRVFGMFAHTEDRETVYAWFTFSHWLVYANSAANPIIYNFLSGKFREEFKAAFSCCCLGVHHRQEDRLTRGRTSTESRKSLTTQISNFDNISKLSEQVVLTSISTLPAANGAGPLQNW
In words: Orexin receptor antagonistic activity, intracellular Ca2+ fluorescence (FDSS) in CHO cells expressing hOX2R. Type of assay: cell-based. The note with it: CHO cells forced to express hOX2R; orexin-A analogue peptide ligand 3 nM; Fluo-4 maximum fluorescence; read-out: IC50 value OX2R. As for the experimental part: as §1, §2

For `CCN(CCn1ccc(-c2ccc(F)cn2)n1)C(=O)c1ccc(C)cc1-n1nccn1` [Example 47, N-ethyl-N-{2-[3-(5-fluoropyridin-2-yl)-1H-pyrazol-1-yl]ethyl}-4-methyl-2-(2H-1,2,3-triazol-2-yl)benzamide], the half-inhibitory concentration (IC50) in assay [1] turned out to be 0.8 nM; in assay [2], 7.1 nM.
Regarding `CCN(CCn1ccc(-c2ccc(F)cn2)n1)C(=O)c1cccc(F)c1-n1nccn1` [Example 48, N-ethyl-3-fluoro-N-{2-[3-(5-fluoropyridin-2-yl)-1H-pyrazol-1-yl]ethyl}-2-(2H-1,2,3-triazol-2-yl)benzamide], the results for the IC50 in assay [1] and in assay [2] were 5.5 nM and 10.3 nM, respectively.
On the same counts, the results for `CCN(CCn1ccc(-c2ccc(F)cn2)n1)C(=O)c1ccc(F)cc1-c1ncccn1` [Example 49, N-ethyl-4-fluoro-N-{2-[3-(5-fluoropyridin-2-yl)-1H-pyrazol-1-yl]ethyl}-2-(pyrimidin-2-yl)benzamide] are 7.1 nM and 48.8 nM.
As to `CCN(CCn1ccc(-c2ccc(F)cn2)n1)C(=O)c1cc(OC)ccc1-n1nccn1` [Example 50, N-ethyl-N-{2-[3-(5-fluoropyridin-2-yl)-1H-pyrazol-1-yl]ethyl}-5-methoxy-2-(2H-1,2,3-triazol-2-yl)benzamide], the figures for the IC50 in assay [1] and in assay [2] were 20 nM and 214 nM, respectively.
On to `CCN(CCn1ccc(-c2ccc(C(F)(F)F)cn2)n1)C(=O)c1cc(C)ccc1-n1nccn1` [Example 51, N-ethyl-5-methyl-2-(2H-1,2,3-triazol-2-yl)-N-(2-{3-[5-(trifluoromethyl)pyridin-2-yl]-1H-pyrazol-1-yl}ethyl)benzamide], for which the IC50 in assay [1] is 50.9 nM; in assay [2] it was 394 nM.
In the case of `CCN(CCn1ccc(-c2cccc(C(F)(F)F)n2)n1)C(=O)c1cc(C)ccc1-n1nccn1` [Example 52, N-ethyl-5-methyl-2-(2H-1,2,3-triaz ° 1-2-yl)-N-(2-{3-[6-(trifluoromethyl)pyridin-2-yl]-1H-pyrazol-1-yl}ethyl)benzamide], the IC50 in assay [1] was determined as 1.1 nM; in assay [2] it was 1.3 nM.
Turning to `CCN(CCn1ccc(-c2ccc(F)c(F)c2)n1)C(=O)c1cc(F)ccc1-c1ncccn1` [Example 53, N-{2-[3-(3,4-difluorophenyl)-1H-pyrazol-1-yl]ethyl}-N-ethyl-5-fluoro-2-(pyrimidin-2-yl)benzamide], the IC50 was 1.5 nM in assay [1] and 7.8 nM in assay [2].
On the same counts, the results for `CCN(CCn1ccc(-c2ccc(F)cc2)n1)C(=O)c1cc(F)ccc1-c1ncccn1` [Example 54, N-ethyl-5-fluoro-N-{2-[3-(4-fluorophenyl)-1H-pyrazol-1-yl]ethyl}-2-(pyrimidin-2-yl)benzamide] are 2 nM and 19.2 nM.
`CCN(CCn1cc(-c2ccc(F)cn2)cn1)C(=O)c1cc(Cl)ccc1-n1nccn1` [Example 55, 5-Chloro-N-ethyl-N-{2-[4-(5-fluoropyridin-2-yl)-1H-pyrazol-1-yl]ethyl}-2-(2H-1,2,3-triazol-2-yl)benzamide]: the IC50 in assay [1] was 1.6 nM; in assay [2], 2.3 nM.
As for `CCN(CCn1cc(-c2ccc(F)cn2)cn1)C(=O)c1cc(F)ccc1-n1nccn1` [Example 56, N-ethyl-5-fluoro-N-{2-[4-(5-fluoropyridin-2-yl)-1H-pyrazol-1-yl]ethyl}-2-(2H-1,2,3-triazol-2-yl)benzamide], the IC50 was 38 nM in assay [1] and 95.9 nM in assay [2].
Take `CCN(CCn1ccc(-c2cccc(C(F)(F)F)n2)n1)C(=O)c1cc(F)ccc1-c1ncccn1` [Example 57, N-ethyl-5-fluoro-2-(pyrimidin-2-yl)-N-(2-{3-[6-(trifluoromethyl)pyridin-2-yl]-1H-pyrazol-1-yl}ethyl)benzamide]: the IC50 stood at 22.9 nM in assay [1] and 99.5 nM in assay [2].
In the case of `CCN(CCn1ccc(-c2cccc(C(F)(F)F)n2)n1)C(=O)c1ccccc1-c1ncccn1` [Example 58, N-ethyl-(pyrimidin-2-yl)-N-(2-{3-[6-(trifluoromethyl)pyridin-2-yl]-1H-pyrazol-1-yl}ethyl)benzamide], the IC50 in assay [1] came to 78.9 nM; in assay [2], 140 nM.
